Measured values published in patent US20050282755A1, “Compositions having antimicrobial activity and uses thereof” (priority 2004, published 2005).
Converted amounts (≈) assume the structure as drawn. Starred links: 1 amine or outer side, 2 acyl side, 3 side chain; linkers in the order of their positions; H or OH if unused. Non-standard residues stand in square brackets, D forms with d. Residues, ends and D or L forms follow the SMILES beside them. *: point of attachment. Ethylenediamine = C(CN[*:2])N[*:1]; Lauroyl = CCCCCCCCCCCC(=O)*; Decanoyl = CCCCCCCCCC(=O)*; Octanoyl = CCCCCCCC(=O)*; Hexanoyl = CCCCCC(=O)*; Ahx = NCCCCCC(=O)O; βAla = NCCC(=O)O

Assays:
[1] = system: Staphylococcus aureus ATCC 29213; test: MIC, NCCLS M7-A6 broth microdilution, cation-adjusted Mueller Hinton broth (Table 9, no superscript); assay type: cell-based; details: ATCC 29213
Description: (§1) Cation-adjusted Mueller Hinton broth was used in the broth microdilution method. In brief, a log-phase bacterial suspension was used to inoculate wells of a 96-well plate so that the final inoculum for each well contained 5×10^5 to 1×10^6 CFU/milliliter. […] Plates were incubated overnight at 37° C. The lowest concentration of peptide that contained no visible growth as evidenced by a lack of turbidity when compared to the control (no peptide) was determined as the MIC. Unless otherwise noted, MIC values listed in Table 9 utilized this method of MIC determination.

Salmonella dublin (Lane) = test: MIC, NCCLS M7-A6 broth microdilution (Table 9, no superscript); assay type: cell-based
Description: as §1

MIC S. aureus [1] [µg/mL] | MIC S. dublin (Salmonella dublin (Lane)) [µg/mL] | SMILES
>64 | >64 | CSCC[C@H](NC(=O)[C@H](Cc1ccccc1)NC(=O)[C@H](CC(N)=O)NC(=O)[C@H](CCCNC(=N)N)NC(=O)[C@H](CO)NC(=O)[C@H](Cc1c[nH]c2ccccc12)NC(=O)[C@H](CC(=O)O)NC(=O)[C@H](CCCNC(=N)N)NC(=O)[C@H](Cc1c[nH]c2ccccc12)NC(=O)[C@H](CCCNC(=N)N)NC(=O)[C@H](CO)NC(=O)[C@H](CCCNC(=N)N)NC(=O)CNC(=O)[C@@H](NC(=O)[C@H](CCCNC(=N)N)NC(=O)[C@H](CO)NC(=O)[C@@H](NC(=O)[C@H](CCCNC(=N)N)NC(=O)[C@@H](NC(=O)CCN)[C@@H](C)O)C(C)C)[C@@H](C)O)C(=O)N[C@@H](CCCNC(=N)N)C(=O)N[C@@H](C)C(=O)N[C@@H](C)C(N)=O [Peptide 18] (H-[βAla]TRVSRTGRSRWRDWSRNFMRAA-NH2)
>64 | 32 (≈ 11.1 µM) | CSCC[C@H](NC(=O)[C@H](Cc1ccccc1)NC(=O)[C@H](CC(N)=O)NC(=O)[C@H](CCCNC(=N)N)NC(=O)[C@H](CO)NC(=O)[C@H](Cc1c[nH]c2ccccc12)NC(=O)[C@H](CC(=O)O)NC(=O)[C@H](CCCNC(=N)N)NC(=O)[C@H](Cc1c[nH]c2ccccc12)NC(=O)[C@H](CCCNC(=N)N)NC(=O)[C@H](CO)NC(=O)[C@H](CCCNC(=N)N)NC(=O)CNC(=O)[C@@H](NC(=O)[C@H](CCCNC(=N)N)NC(=O)[C@H](CO)NC(=O)[C@@H](NC(=O)[C@H](CCCNC(=N)N)NC(=O)[C@@H](NC(C)=O)[C@@H](C)O)C(C)C)[C@@H](C)O)C(=O)N[C@@H](CCCNC(=N)N)C(=O)N[C@@H](CC(C)C)C(=O)N[C@@H](CC(C)C)C(N)=O [Peptide 19] (Ac-TRVSRTGRSRWRDWSRNFMRLL-NH2)
>64 | >64 | CC[C@H](C)[C@H](NC(=O)[C@@H](NC(=O)[C@H](CC(C)C)NC(=O)[C@H](CO)NC(=O)[C@@H](NC(=O)[C@H](CCCNC(=N)N)NC(=O)[C@H](Cc1ccc(O)cc1)NC(=O)[C@H](CC(=O)O)NC(=O)[C@H](CCCNC(=N)N)NC(C)=O)[C@@H](C)O)[C@@H](C)O)C(=O)N[C@H](C(=O)N[C@@H](CCC(N)=O)C(=O)N[C@@H](CCCCN)C(=O)NCCCCCC(=O)N[C@H](C(=O)N[C@@H](CCCNC(=N)N)C(=O)N[C@H](C(=O)N[C@@H](CO)C(=O)N[C@@H](CCCNC(=N)N)C(=O)N[C@H](C(=O)NCC(=O)N[C@@H](CCCNC(=N)N)C(=O)N[C@@H](CO)C(=O)N[C@@H](CCCNC(=N)N)C(=O)N[C@@H](Cc1c[nH]c2ccccc12)C(=O)N[C@@H](CCCNC(=N)N)C(=O)N[C@@H](CC(=O)O)C(=O)N[C@@H](Cc1c[nH]c2ccccc12)C(=O)N[C@@H](CO)C(=O)N[C@@H](CCCNC(=N)N)C(=O)N[C@@H](CC(N)=O)C(=O)N[C@@H](Cc1ccccc1)C(=O)N[C@@H](CCSC)C(=O)N[C@@H](CCCNC(=N)N)C(N)=O)[C@@H](C)O)C(C)C)[C@@H](C)O)C(C)C [Peptide 28, Ac-RDYRTSLTIVQKXTRVSRTGRSRWRDWSRNFMR-NH2 X = aminohexanoic acid] (Ac-RDYRTSLTIVQK[Ahx]TRVSRTGRSRWRDWSRNFMR-NH2)
>64 | >64 | CCCCCCCCCCCC(=O)N[C@@H](CCCNC(=N)N)C(=O)N[C@@H](CC(=O)O)C(=O)N[C@H](C(=O)N[C@@H](C)C(=O)N[C@@H](CCCNC(=N)N)C(=O)N[C@@H](CC(N)=O)C(=O)N[C@@H](Cc1ccccc1)C(N)=O)C(C)C [Peptide 107, Lauryl-RDVARNF-NH2] (Lauroyl-RDVARNF-NH2)
4 (≈ 2.25 µM) | 4 (≈ 2.25 µM) | CCCCCCCCCCCC(=O)N[C@@H](CO)C(=O)N[C@@H](CCCNC(=N)N)C(=O)N[C@@H](Cc1c[nH]c2ccccc12)C(=O)N[C@@H](CCCNC(=N)N)C(=O)N[C@@H](CC(=O)O)C(=O)N[C@H](C(=O)N[C@@H](C)C(=O)N[C@@H](CCCNC(=N)N)C(=O)N[C@@H](CC(N)=O)C(=O)N[C@@H](Cc1ccccc1)C(=O)N[C@@H](CCSC)C(=O)N[C@@H](CCCNC(=N)N)C(N)=O)C(C)C [Peptide 114, Lauryl-SRWRDVARNFMR-NH2] (Lauroyl-SRWRDVARNFMR-NH2)
2 (≈ 1.04 µM) | 2 (≈ 1.04 µM) | CCCCCCCCCC(=O)NCCNC(=O)[C@H](CCCNC(=N)N)NC(=O)[C@H](CC(C)C)NC(=O)[C@H](Cc1ccccc1)NC(=O)[C@H](CC(N)=O)NC(=O)[C@H](CCCNC(=N)N)NC(=O)[C@H](C)NC(=O)[C@@H](NC(=O)[C@H](CC(=O)O)NC(=O)[C@H](CCCNC(=N)N)NC(=O)[C@H](Cc1c[nH]c2ccccc12)NC(=O)[C@H](CCCNC(=N)N)NC(=O)[C@H](CO)NC(=O)[C@@H](N)CCCNC(=N)N)C(C)C [Peptide 170, H2N-RSRWRDVARNFLR-Ethylamidodecanyl] (H-RSRWRDVARNFLR-{Ethylenediamine-Decanoyl}; C-terminus assumed)
8 (≈ 4.09 µM) | 8 (≈ 4.09 µM) | CCCCCCCCCCCC(=O)NCCNC(=O)[C@H](CCCNC(=N)N)NC(=O)[C@H](CC(C)C)NC(=O)[C@H](Cc1ccccc1)NC(=O)[C@H](CC(N)=O)NC(=O)[C@H](CCCNC(=N)N)NC(=O)[C@H](C)NC(=O)[C@@H](NC(=O)[C@H](CC(=O)O)NC(=O)[C@H](CCCNC(=N)N)NC(=O)[C@H](Cc1c[nH]c2ccccc12)NC(=O)[C@H](CCCNC(=N)N)NC(=O)[C@H](CO)NC(=O)[C@@H](N)CCCNC(=N)N)C(C)C [Peptide 171, H2N-RSRWRDVARNFLR-Ethylamidolauryl] (H-RSRWRDVARNFLR-{Ethylenediamine-Lauroyl}; C-terminus assumed)
>64 | >64 | CCCCCC(=O)NCCCC[C@H](NC(=O)[C@H](CCCNC(=N)N)NC(=O)[C@H](CCSC)NC(=O)[C@H](Cc1ccccc1)NC(=O)[C@H](CC(N)=O)NC(=O)[C@H](CCCNC(=N)N)NC(=O)[C@H](C)NC(=O)[C@@H](NC(=O)[C@H](CC(=O)O)NC(=O)[C@H](CCCNC(=N)N)NC(=O)[C@H](Cc1c[nH]c2ccccc12)NC(=O)[C@H](CCCNC(=N)N)NC(=O)[C@H](CO)NC(=O)[C@@H](N)CCCNC(=N)N)C(C)C)C(N)=O [Peptide 183, H2N-RSRWRDVARNFMRK(Hexanyl)-NH2] (H-RSRWRDVARNFMRK(Hexanoyl)-NH2)
>64 | >64 | CCCCCC(=O)NCCCC[C@@H](NC(=O)[C@@H](CCCNC(=N)N)NC(=O)[C@@H](CC(C)C)NC(=O)[C@@H](Cc1ccccc1)NC(=O)[C@@H](CC(N)=O)NC(=O)[C@@H](CCCNC(=N)N)NC(=O)[C@@H](C)NC(=O)[C@H](NC(=O)[C@@H](CC(=O)O)NC(=O)[C@@H](CCCNC(=N)N)NC(=O)[C@@H](Cc1c[nH]c2ccccc12)NC(=O)[C@@H](CCCNC(=N)N)NC(=O)[C@@H](CO)NC(=O)[C@H](N)CCCNC(=N)N)C(C)C)C(N)=O [Peptide 192, H2N-rsrwrdvarnflrk(Hexanyl)-NH2] (H-[dR][dS][dR][dW][dR][dD][dV][dA][dR][dN][dF][dL][dR][dK](Hexanoyl)-NH2)
>64 | >64 | CCCCCC(=O)NCCCC[C@@H](NC(=O)[C@@H](CCCNC(=N)N)NC(=O)[C@@H](CCSC)NC(=O)[C@@H](Cc1ccccc1)NC(=O)[C@@H](CC(N)=O)NC(=O)[C@@H](CCCNC(=N)N)NC(=O)[C@@H](C)NC(=O)[C@H](NC(=O)[C@@H](CC(=O)O)NC(=O)[C@@H](CCCNC(=N)N)NC(=O)[C@@H](Cc1c[nH]c2ccccc12)NC(=O)[C@@H](CCCNC(=N)N)NC(=O)[C@@H](CO)NC(=O)[C@H](N)CCCNC(=N)N)C(C)C)C(N)=O [Peptide 197, H2N-rsrwrdvarnfmrk(Hexanyl)-NH2] (H-[dR][dS][dR][dW][dR][dD][dV][dA][dR][dN][dF][dM][dR][dK](Hexanoyl)-NH2)
32 (≈ 17.1 µM) | >64 | CCCCCCCC(=O)N[C@@H](CCCNC(=N)N)C(=O)N[C@@H](CO)C(=O)N[C@@H](CCCNC(=N)N)C(=O)N[C@@H](Cc1c[nH]c2ccccc12)C(=O)N[C@@H](CCCNC(=N)N)C(=O)N[C@@H](CC(=O)O)C(=O)N[C@H](C(=O)N[C@@H](C)C(=O)N[C@@H](CCCNC(=N)N)C(=O)N[C@@H](CC(N)=O)C(=O)N[C@@H](Cc1ccccc1)C(=O)N[C@@H](CCSC)C(=O)N[C@@H](CCCNC(=N)N)C(N)=O)C(C)C [Peptide 203, Octyl-RSRWRDVARNFMR-NH2] (Octanoyl-RSRWRDVARNFMR-NH2)
8 (≈ 3.64 µM) | 16 (≈ 7.29 µM) | CCCCCCCCCCCC(=O)NCCNC(=O)C[C@H](CCCNC(=N)N)NC(=O)C[C@H](CC(C)C)NC(=O)C[C@H](Cc1ccccc1)NC(=O)C[C@H](CCCNC(=N)N)NC(=O)C[C@H](CC(N)=O)NC(=O)C[C@@H](NC(=O)C[C@H](CCCNC(=N)N)NC(=O)C[C@H](CC(=O)O)NC(=O)C[C@@H](NC(=O)C[C@H](CCCNC(=N)N)NC(=O)C[C@H](CO)NC(=O)C[C@H](Cc1c[nH]c2ccccc12)NC(=O)C[C@@H](N)CCCNC(=N)N)[C@@H](C)CC)[C@@H](C)CC [Peptide 216, H2N-RWSRIDRINRFLR-Ethylamidolauryl all amino acids are beta3]
>64 | >64 | CCCCCCCCCCCC(=O)N[C@H](CCCNC(=N)N)C(=O)N[C@H](CC(C)C)C(=O)N[C@H](CCCNC(=N)N)C(=O)N[C@H](Cc1c[nH]c2ccccc12)C(=O)N[C@H](CCCNC(=N)N)C(=O)N[C@H](CC(C)C)C(=O)N[C@@H](C(=O)N[C@H](CC(C)C)C(=O)N[C@H](CCCNC(=N)N)C(=O)N[C@H](CC(C)C)C(=O)N[C@H](Cc1ccccc1)C(=O)N[C@H](CC(C)C)C(=O)N[C@H](CCCNC(=N)N)C(N)=O)C(C)C [Peptide 218, Lauryl-rlrwrlvlrlflr-NH2] (Lauroyl-[dR][dL][dR][dW][dR][dL][dV][dL][dR][dL][dF][dL][dR]-NH2)
